Assay results as given in US20190282673A1, “STAPHTAME ACTIVITY ON BIOFILMS” (priority 2016, published 2019).
Values joined by “and” are separate entries in the source; they are usually repeats but may differ in a detail not shown here. Equal entries are not always repeated. Where two headings read alike, the source gives them in different places.

Key:
[1] = system: S. aureus strains BK18 and B9377; experiment: Generation and confirmation of antibiotic persisters (CFU over time); type: cell-based, Staphylococcus aureus; conditions: for CFU/mL, generation of persisters / CFU/mL, confirmation of persisters (regrown, re-exposed): Vancomycin 100X; for CFU/mL, generation of persisters: Daptomycin 50X MIC; for CFU/mL, confirmation of persisters (regrown, re-exposed): Daptomycin 50×; for Drop in CFU at the end of 4 h treatment: generation of persisters
Method: (§1) Persisters of S. aureus BK18 and B9377 and S. epidermidis strain B9470 were generated as per protocol described by Lechner, et al (Staphylococcus aureus persisters tolerant to bactericidal antibiotics. Lechner, et al. (2012) J Mol Microbiol Biotechnol; 22(4):235-44). Briefly, colonies were suspended in LB broth and allowed to grow at 37° C., 200 rpm for ˜2 hours. The cultures were pelleted, resuspended in MHB and OD600 was adjusted to 0.5 to 1.0 OD (˜2 to 5×10^8 CFU/mL). […] The test tubes were incubated at 37° C., 200 rpm, and 250 μL was sampled out at 4, 8, and 24 hr time points. This aliquot was pelleted, washed in saline and resuspended in equal volume of saline, diluted and plated on LB agar. Rapid decrease in CFUs, followed by rather stable values for up to 24 hrs, indicated the presence of Daptomycin/Vancomycin tolerant persisters.
(§2) After sampling for P128 and antibiotic activity, the rest of the sample was pelleted, washed in saline and resuspended into fresh media (LB). Allowed to grow at 37° C., 200 rpm until it reaches 1 OD and then the same steps followed as done for generation of persisters. A biphasic growth curve similar to that obtained during generation of persisters would indicate the tolerance to be phenotypic and not genotypic.

[2] = system: S. epidermidis B9470 biofilms on catheters; experiment: Preformed biofilms on catheters, safranin staining and SEM; type: cell-based, Staphylococcus epidermidis; conditions: 18 hrs; P128 8 μg/mL (1×MIC); vancomycin 30 μg/mL (30×MIC)
Method: In order to simulate the in vivo conditions for biofilm formation in device associated infections, S. epidermidis B9470 was allowed to form biofilms on the surface of catheters. An overnight-grown culture was diluted 1:40 in TSB containing 4% sodium chloride. Catheter (JMS Infusion set) pieces of 1-2 cm size were cut, slit into two halves and added to the culture. The cultures with catheter pieces were incubated at 37° C. with shaking at 100 rpm for 42 h. Post incubation, the catheters were removed and rinsed twice in PBS to remove the adhering planktonic cells. The biofilms on catheters were challenged with 8 μg/mL of P128 or 30 μg/mL of vancomycin by transferring the catheter pieces into tubes containing the drugs. The tubes were incubated at 37° C. under static conditions for 18 hrs. The catheters were then removed from the tubes, rinsed once in PBS, and immersed in 0.1% safranin [a dye that stains cell wall of bacteria] for 5 min. The stained catheters were washed once in PBS and allowed to dry. After drying, samples were fixed on aluminum stubs with double sided carbon adhesive tape, coated with 5-7 nm thickness gold using a sputter-coating system (Quorum Technologies; Q150T) and examined by SEM (Carl Zeiss. Neon 40) for the presence of biofilm structures.

S. aureus USA300 = experiment: Mouse model of S. aureus with mucin-enhanced virulence, survival; type: in vivo, BALB/c mice; conditions: S. aureus USA300 10^9 CFU ip, P128 […] ip, Vancomycin 27.5 mg/kg sc 2 doses, or both
Method: Eight to nine weeks old female BALB/c mice were challenged intraperitoneally with 10^9 CFU of S. aureus USA300. At 2 hours post-infection, animals were treated with either P128 at 2.5 mg/kg intraperitoneally, or vancomycin at 27.5 mg/kg subcutaneously, or combination of both. Groups treated with only vancomycin or combination of P128 and vancomycin were administered with a second dose of vancomycin at 12 hours after the first treatment. At 72 hours post-infection, P128 and vancomycin yielded 56 and 44% survival, respectively.

[3] = system: S. epidermidis strain B9470; experiment: Generation and confirmation of antibiotic persisters (CFU over time); type: cell-based, Staphylococcus epidermidis; conditions: for CFU/mL, generation of persisters: Vancomycin 50X, Daptomycin 10X MIC; for CFU/mL, confirmation of persisters (regrown, re-exposed): head prints Vancomycin 100X, Daptomycin 50×
Method: as §1, §2

S. epidermidis = experiment: MIC and checkerboard synergy (broth microdilution) on planktonic cells; type: cell-based, Staphylococcus epidermidis; conditions: Staphylococcus epidermidis
Method: Bacterial cultures at a final cell number of 5×10^5 CFU/mL was added to wells of 96-well microtiter plates (precoated with 0.5% BSA), containing two-fold dilutions of P128 and the second drug in cation adjusted Mueller Hinton Broth (CAMHB). The plates were incubated at 37° C. for 24 h and the individual MICs and the combination MICs were read. The fractional inhibitory concentration index (FICI) was determined using the following equation: FICI=(MIC of drug A in the combination/MIC of drug A alone)+(MIC of drug B in the combination/MIC of drug B alone). The combination was considered to be synergistic when the FICI was ≤0.5; additive when FICI was 0.5-1.0; indifferent when FICI was 1-4 and antagonistic when FICI≥4.
S. epidermidis culture at a final cell number of 5×10^5 CFU/mL was added to wells of 96-well microtiter plates (precoated with 0.5% BSA), containing two-fold dilutions of P128 and either Daptomycin or Oxacillin in cation adjusted Mueller Hinton Broth (CAMHB). CAMHB was supplemented with 50 µg/mL Ca^++ for daptomycin assay. The plates were incubated at 37° C. for 24 h and the individual MICs and the combination MICs were read. The fractional inhibitory concentration index (FICI) was determined using the following equation: FICI=(MIC of drug A in the combination/MIC of drug A alone)+(MIC of drug B in the combination/MIC of drug B alone). The combination was considered to be synergistic when the FICI was ≤0.5; additive when FICI was between 0.5-1.0; indifferent when FICI was between 1-4 and antagonistic when FICI was ≥4. The experiments were performed in triplicate and repeated twice.

[4] = system: MRSA MW2 biofilm on catheter; experiment: In vivo biofilm on catheter implanted subcutaneously in neutropenic mice; conditions: Table VB2: Daptomycin 12.5 mg/kg sc 1 dose per day for 3 days; P128 800 μg per dose sc 3 doses/day for 3 days; or both
Method: Eight-nine week old female BALB/c mice 25 g were rendered neutropenic with cyclophosphamide and were operated under ketamine-xylazine anesthesia. A 1-cm incision was made in the dorsal neck surface by aseptic technique and subcutaneous pouch was created. Catheter segments of 1 cm length pre-incubated with MRSA MW2 suspension (6×10^3 CFUs/mL) for 4 hrs, were placed in the subcutaneous space and the wounds were closed with suture thereafter. As uninfected control, one group of mice were surgically operated and a sterile catheter segment was placed in the cavity. At 24 hours post-catheter implantation, mice were treated with P128 (800 μg per animal, subcutaneously) or with the placebo (saline). Treatments were given thrice a day at 2 hr intervals for three days and 1 hr after the last treatment, the catheters were removed, biofilms were harvested and CFUs recovered were plated on culture media and enumerated. Catheters from a subset of animals were stained with 0.1% safranin, (which stains the bacteria) for 5 min.
For evaluation of synergy with daptomycin, mouse model of biofilm described above was used with few modifications. Eight-nine week old female BALB/c mice 25 g were rendered neutropenic with cyclophosphamide and were operated under ketamine-xylazine anesthesia. A 1-cm incision was made in the dorsal neck surface by aseptic technique and subcutaneous pouch was created. Catheter segments measuring 1 cm were placed in the subcutaneous space, and the wounds closed with suture. At 72 hours post-implantation. MRSA MW2 bacterial inoculum (2.1×10^7 CFU per animal) was injected subcutaneously onto the catheter. At 24 hrs post-challenge, animals were treated with either P128 (800 μg per animal, subcutaneous), or daptomycin (12.5 mg/kg, subcutaneous) or a combination of both. Daptomycin was given once every day for three days whereas P128 was administered thrice a day at 2 hr interval for three days. 1 hr after the last treatment, animals were euthanized and catheters were collected and recovered CFUs were enumerated.
Biofilms were also visualized by staining the catheters with 0.1% safranin.

Structure (SMILES)	CFU/mL, generation of persisters ([1]; B9377, 0 h)	CFU/mL, confirmation of persisters (regrown, re-exposed) ([1]; B9377, 0 h)	CFU/mL, generation of persisters ([1]; B9377, 4 h)	CFU/mL, confirmation of persisters (regrown, re-exposed) ([1]; B9377, 4 h)	CFU/mL, generation of persisters ([1]; B9377, 8 h)	CFU/mL, confirmation of persisters (regrown, re-exposed) ([1]; B9377, 8 h)	CFU/mL, generation of persisters ([1]; B9377, 24 h)	CFU/mL, confirmation of persisters (regrown, re-exposed) ([1]; B9377, 24 h)	CFU/mL, generation of persisters ([1]; BK18, 0 h)	CFU/mL, confirmation of persisters (regrown, re-exposed) ([1]; BK18, 0 h)	CFU/mL, generation of persisters ([1]; BK18, 4 h)	CFU/mL, confirmation of persisters (regrown, re-exposed) ([1]; BK18, 4 h)	CFU/mL, generation of persisters ([1]; BK18, 8 h)	CFU/mL, confirmation of persisters (regrown, re-exposed) ([1]; BK18, 8 h)	CFU/mL, generation of persisters ([1]; BK18, 24 h)	CFU/mL, confirmation of persisters (regrown, re-exposed) ([1]; BK18, 24 h)	Drop in CFU at the end of 4 h treatment [1]	CFU/mL, generation of persisters ([3]; B9470, 0 h)	CFU/mL, confirmation of persisters (regrown, re-exposed) ([3]; B9470, 0 h)	CFU/mL, generation of persisters ([3]; B9470, 2 h)	other results
CN[C@H](CC(C)C)C(=O)N[C@H]1C(=O)N[C@@H](CC(N)=O)C(=O)N[C@H]2C(=O)N[C@H]3C(=O)N[C@H](C(=O)N[C@H](C(=O)O)c4cc(O)cc(O)c4-c4cc3ccc4O)[C@H](O)c3ccc(c(Cl)c3)Oc3cc2cc(c3O[C@@H]2O[C@H](CO)[C@@H](O)[C@H](O)[C@H]2O[C@H]2C[C@](C)(N)[C@H](O)[C@H](C)O2)Oc2ccc(cc2Cl)[C@H]1O [Vancomycin, vancomycin]	2.5 × 10^8 CFU/mL	1.5 × 10^8 CFU/mL	8 × 10^6 CFU/mL	2 × 10^6 CFU/mL	1.9 × 10^6 CFU/mL	2 × 10^6 CFU/mL	1.1 × 10^5 CFU/mL	8 × 10^5 CFU/mL	2 × 10^8 CFU/mL	1 × 10^8 CFU/mL	1 × 10^7 CFU/mL	2.5 × 10^5 CFU/mL	2 × 10^6 CFU/mL	1 × 10^5 CFU/mL	4 × 10^5 CFU/mL	1 × 10^5 CFU/mL	Approximately two log drop in CFU	3.2 × 10^7 CFU/mL	2 × 10^7 CFU/mL	1 × 10^6 CFU/mL	Effect on catheter biofilm (safranin/SEM) [2]: minimal effect; Survival at 72 h post infection (S. aureus USA300): 43%; Survival at 72 h post infection (S. aureus USA300; listed as vancomycin): 44%; CFU/mL, confirmation of persisters (regrown, re-exposed) ([3]; B9470, 2 h): 1 × 10^5 CFU/mL; CFU/mL, generation of persisters ([3]; B9470, 4 h): 3 × 10^5 CFU/mL; CFU/mL, confirmation of persisters (regrown, re-exposed) ([3]; B9470, 4 h): 6 × 10^4 CFU/mL; CFU/mL, generation of persisters ([3]; B9470, 8 h): 9 × 10^3 CFU/mL; CFU/mL, confirmation of persisters (regrown, re-exposed) ([3]; B9470, 8 h): 1.5 × 10^4 CFU/mL; CFU/mL, generation of persisters ([3]; B9470, 24 h): 3 × 10^4 CFU/mL; CFU/mL, confirmation of persisters (regrown, re-exposed) ([3]; B9470, 24 h): 5 × 10^3 CFU/mL
CCCCCCCCCC(=O)N[C@@H](Cc1c[nH]c2ccccc12)C(=O)N[C@H](CC(N)=O)C(=O)N[C@@H](CC(=O)O)C(=O)N[C@@H]1C(=O)NCC(=O)N[C@@H](CCCN)C(=O)N[C@@H](CC(=O)O)C(=O)N[C@H](C)C(=O)N[C@@H](CC(=O)O)C(=O)NCC(=O)N[C@H](CO)C(=O)N[C@@H]([C@H](C)CC(=O)O)C(=O)N[C@@H](CC(=O)c2ccccc2N)C(=O)O[C@@H]1C [Daptomycin, daptomycin]	2.5 × 10^8 CFU/mL	2.5 × 10^8 CFU/mL	4 × 10^3 CFU/mL	6 × 10^3 CFU/mL	1 × 10^3 CFU/mL	1 × 10^3 CFU/mL	5.5 × 10^3 CFU/mL	9 × 10^2 CFU/mL	2 × 10^8 CFU/mL	1 × 10^8 CFU/mL	3 × 10^3 CFU/mL	3 × 10^2 CFU/mL	1 × 10^3 CFU/mL	1 × 10^2 CFU/mL	5 × 10^3 CFU/mL	6 × 10^2 CFU/mL	5 log	3.2 × 10^7 CFU/mL	1 × 10^7 CFU/mL	1 × 10^7 CFU/mL	MIC (S. epidermidis; ATCC12228, S. epidermidis ATCC 12228, read-out: MIC (drug alone)): 1 µg/mL; MIC (S. epidermidis; S. epidermidis B9467, read-out: MIC (drug alone)): 2 µg/mL; MIC (S. epidermidis; S. epidermidis B9468, read-out: MIC (drug alone)): 0.5 µg/mL; MIC (S. epidermidis; S. epidermidis B9471, read-out: MIC (drug alone)): 2 µg/mL; MIC (S. epidermidis; S. epidermidis B9472, read-out: MIC (drug alone)): 2 µg/mL; MIC (S. epidermidis; S. epidermidis strains of Tables 7 and 8, read-out: MIC over the strains): 0.5 to 2 µg/mL; CFU/mL, confirmation of persisters (regrown, re-exposed) ([3]; B9470, 2 h): 9 × 10^4 CFU/mL; CFU/mL, generation of persisters ([3]; B9470, 4 h): 2.3 × 10^6 CFU/mL; CFU/mL, confirmation of persisters (regrown, re-exposed) ([3]; B9470, 4 h): 4 × 10^3 CFU/mL; CFU/mL, generation of persisters ([3]; B9470, 8 h): 5 × 10^5 CFU/mL; CFU/mL, confirmation of persisters (regrown, re-exposed) ([3]; B9470, 8 h): 6 × 10^2 CFU/mL; CFU/mL, generation of persisters ([3]; B9470, 24 h): 3 × 10^6 CFU/mL; CFU/mL, confirmation of persisters (regrown, re-exposed) ([3]; B9470, 24 h): 5 × 10^3 CFU/mL; CFU recovered from catheter biofilm, individual animals [4]: 4.9 CFU (Log10)/ml and 2.6 CFU (Log10)/ml and 3.0 CFU (Log10)/ml and 2.7 CFU (Log10)/ml
